{"source": "paper PMC5985834", "about": "“A Testosterone Metabolite 19-Hydroxyandrostenedione Induces Neuroendocrine Trans-Differentiation of Prostate Cancer Cells via an Ectopic Olfactory Receptor” (Frontiers in Oncology, 2018)", "key": {"OR51E2 [1]": {"biological_target": "T1, OR51E2 (Homo sapiens, UniProt Q9H255)", "T1 construct": "OR51E2 plasmid transiently transfected into Hana3A cells with CREB-luciferase reporter", "T1 sequence (Q9H255 1-320)": "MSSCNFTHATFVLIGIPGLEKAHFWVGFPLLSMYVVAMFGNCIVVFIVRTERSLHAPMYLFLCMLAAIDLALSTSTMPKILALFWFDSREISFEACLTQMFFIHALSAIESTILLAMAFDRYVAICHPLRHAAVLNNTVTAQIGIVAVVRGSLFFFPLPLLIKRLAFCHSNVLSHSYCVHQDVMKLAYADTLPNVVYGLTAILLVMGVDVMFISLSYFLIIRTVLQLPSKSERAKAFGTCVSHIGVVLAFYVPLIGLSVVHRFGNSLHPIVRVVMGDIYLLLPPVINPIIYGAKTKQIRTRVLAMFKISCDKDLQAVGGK", "assay": "cAMP CRE-luciferase reporter assay in Hana3A cells", "format": "cell-based", "settings": "agonist, M10d medium, read-out: EC50 (potency) /"}, "OR51E2 [2]": {"biological_target": "T1, OR51E2", "assay": "cAMP CRE-luciferase reporter assay in Hana3A cells", "format": "cell-based", "settings": "agonist, M10d medium, max conc. 10 µM, below the EC50, unreliable", "excerpt": "cAMP CRE-luciferase reporter assay in Hana3A cells on OR51E2"}}, "note": "Like-named read-outs stand apart in the source and are kept apart here. Where a SMILES comes first, the peptide text is derived from it. [ ]: non-standard residue; d: D form."}
{"compound": "NC(N)=O", "note": "[Urea]", "values": [{"measurement": "EC50", "setting": "OR51E2 [1]; max conc. 10 mM", "result": 23, "unit": "nM"}]}
{"compound": "COc1cc(CCC(=O)CC(=O)CCc2ccc(O)c(OC)c2)ccc1O", "note": "[Tetrahydrocurcumin]", "values": [{"measurement": "EC50", "setting": "OR51E2 [1]; max conc. 316 µM", "result": 570, "unit": "nM"}]}
{"compound": "O=C(O)C(=O)CO", "note": "[Hydroxypyruvic acid]", "values": [{"measurement": "EC50", "setting": "OR51E2 [1]; max conc. 316 µM", "result": 420, "unit": "nM"}]}
{"compound": "O=C1CCCN1", "note": "[2-Pyrrolidinone]", "values": [{"measurement": "EC50", "setting": "OR51E2 [1]; max conc. 100 µM", "result": 1.9, "unit": "nM"}]}
{"compound": "CC(=O)N[C@@H](CCC(=O)O)C(=O)O", "note": "[N-Acetylglutamic acid]", "values": [{"measurement": "EC50", "setting": "OR51E2 [1]; max conc. 10 µM", "result": 0.23, "unit": "nM"}]}
{"compound": "O=C(O)[C@@H](O)CO", "note": "[L-Glyceric acid]", "values": [{"measurement": "EC50", "setting": "OR51E2 [1]; max conc. 1 mM", "result": 1.9, "unit": "nM"}]}
{"compound": "C[C@]12CC[C@@H]3c4ccc(O)cc4CC[C@H]3[C@@H]1C[C@@H](O)[C@@H]2O", "note": "[Estriol]", "values": [{"measurement": "EC50 (potency) /", "setting": "OR51E2 [2]", "result": 53000, "unit": "nM"}]}
{"compound": "C[C@@H](N)C(=O)N[C@H](C)C(=O)O", "note": "[D-Alanyl-D-alanine] (H-[dA]-[dA]-OH)", "values": [{"measurement": "EC50", "setting": "OR51E2 [1]; max conc. 3.16 mM", "result": 14000, "unit": "nM"}]}
{"compound": "CCCCCCCCCCCCCCCC(=O)O", "note": "[Palmitic acid]", "values": [{"measurement": "EC50", "setting": "OR51E2 [1]; max conc. 1 mM", "result": 9.8, "unit": "nM"}]}
{"compound": "COc1ccc(NC=O)c(C(=O)CCNC(C)=O)c1", "note": "[AFMK]", "values": [{"measurement": "EC50", "setting": "OR51E2 [1]; max conc. 3.16 mM", "result": 12000, "unit": "nM"}]}
{"compound": "Oc1ccc(-c2[o+]c3cc(O)cc(O)c3cc2O)cc1", "note": "[Pelargonidin]", "values": [{"measurement": "EC50", "setting": "OR51E2 [1]; max conc. 100 µM", "result": 0.42, "unit": "nM"}]}
{"compound": "C[C@]12CC[C@H]3[C@@H](CCC4=CC(=O)CC[C@@]43CO)[C@@H]1CCC2=O", "note": "[19-OH AD, 19-hydroxyandrost-4-ene-3,17-dione]", "values": [{"measurement": "EC50", "setting": "OR51E2 [1]; max conc. 10 µM", "result": 0.15, "unit": "nM"}]}
